The text below walks through data of PubChem BioAssay AID2811 (Southern Research Specialized Biocontainment Screening …, 2010).

The source made the active and inactive calls. How the calls were made is not given here.

The experiment relates to S. Typhi WT vs phoP-, polymyxin IC50 shift, OD600 24 h. Nature of the experiment: polymyxin IC50 shift in S. Typhi, Salmonella typhi, set 2 (AID 2811). The conditions noted are these: stronger effect = lower value; for polymyxin IC50 shift difference (WT - phoP-) / polymyxin IC50 shift: at 150 µM.
Where [1] appears, read: measured here: phoP- strain shift.
[2] abbreviates: measured here: wild-type strain shift.

Turning to `CCn1cc(C(=O)O)c(=O)c2cc(F)c(N3CCN(C(=S)Nc4ccccc4C(F)(F)F)CC3)cc21`, the polymyxin IC50 shift difference (WT - phoP-) was -9.73 (inactive). Besides, under “WT polymyxin IC50 at 150 uM”, the polymyxin IC50 was found to be 2.53 µM. In addition, the polymyxin IC50 shift under setting [1] is 9.16. The polymyxin IC50 shift under setting [2] is -0.568. Also, for the setting “phoP- polymyxin IC50 at 150 uM”, the polymyxin IC50 came to 2.76 µM.

Take `COc1cccc(C2Sc3ccccc3NC3=C2C(=O)c2ccccc23)c1` (centres undefined): the polymyxin IC50 shift difference (WT - phoP-) was -3.66 (inactive). In addition, the polymyxin IC50 (WT polymyxin IC50 at 150 uM) was found to be 2.58 µM. Besides, the polymyxin IC50 shift under setting [1] is 4.99. Moreover, under setting [2], the polymyxin IC50 shift came to 1.33. Also, the polymyxin IC50 (phoP- polymyxin IC50 at 150 uM) amounted to 11.2 µM.

Consider `COc1ccc(CNC(=S)Nc2ccncc2)cc1`, for which the polymyxin IC50 shift difference (WT - phoP-) was -2.86 (inactive). In addition, the polymyxin IC50 (WT polymyxin IC50 at 150 uM) came to 5.14 µM. In addition, the polymyxin IC50 shift under setting [1] is -0.186. In addition, the polymyxin IC50 shift under setting [2] was -3.04. The polymyxin IC50 (phoP- polymyxin IC50 at 150 uM) came to 4.55 µM.

As to `O=C1C2=C(Nc3ccccc3SC2c2ccc(I)cc2)c2ccccc21` (centres undefined), the polymyxin IC50 shift difference (WT - phoP-) is -8.99 (inactive). In addition, the polymyxin IC50 (WT polymyxin IC50 at 150 uM) amounted to 25.8 µM. Under setting [1], the polymyxin IC50 shift was determined as 1.81. The polymyxin IC50 shift under setting [2] was -7.18. Moreover, the polymyxin IC50 (phoP- polymyxin IC50 at 150 uM) came out at 0.04 µM.

For the compound `O=C(Nc1ccc(Br)cc1)N1CCCN(Cc2ccccc2F)C1`, the polymyxin IC50 shift difference (WT - phoP-) was -5.49 (inactive). For the same compound, where the note is “WT polymyxin IC50 at 150 uM”, the polymyxin IC50 is 7.08 µM. In addition, the polymyxin IC50 shift under setting [1] amounted to 1.55. For the same compound, the polymyxin IC50 shift under setting [2] is -3.93. The polymyxin IC50 (phoP- polymyxin IC50 at 150 uM) worked out at 2.62 µM.

As to `O=C1C2=C(Nc3ccccc3SC2c2ccsc2)c2ccccc21` (centres undefined), the polymyxin IC50 shift difference (WT - phoP-) was -25.9 (inactive). Also, the polymyxin IC50 (WT polymyxin IC50 at 150 uM) came out at 21.5 µM. Besides, under setting [1], the polymyxin IC50 shift was found to be 6.12. Besides, under setting [2], the polymyxin IC50 shift was -19.7.
